According to patent US20260070887A1 (Shenzhen Zhongge Biological Technology Co., Ltd., priority 2022, published 2026):
Like-named read-outs stand apart in the source and are kept apart here.

What was measured:
KIF18A = KIF18A (Homo sapiens (Human), UniProt Q8NI77); experiment: KIF18A ATPase activity under tubulin stimulation (ADP-Glo assay); type: biochemical; conditions: KIF18A 30 nM, ATP 150 μM, pig microtubules
OVCAR-3 cells = experiment: OVCAR-3 cell proliferation (Cell Titer-Glo, 10 days); type: cell-based, human
In short: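 400 cells per well were seeded onto pre-dispensed compound (final 0.12 nM to 10 μM) in RPMI-1640 with 20% FBS and insulin, then co-cultured for 10 days. Viability was read as Cell Titer-Glo luminescence, inhibition was taken against 0.1% DMSO control, and IC50 came from nonlinear concentration-inhibition regression.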

HT-29 cells = experiment: HT-29 cell proliferation (Cell Titer-Glo, 6 days); type: cell-based
Procedure: The inhibitory effect on the KIF18A target by the compounds of the present disclosure was evaluated by testing the inhibitory effect on proliferation of HT-29 cells by the compounds of the present disclosure.
HT-29 (ATCC, HTB-38) cells were cultured in McCoy's 5a complete medium (Gibco, 12330-031) containing 10% fetal bovine serum (Gibco, 10099-141C), 100 U penicillin and […] streptomycin (Gibco, 15140-122). The Promega kit Cell Titer-Glo (Promega: G7572) was used in this method for test. • 1. HT-29 cells were cultured in T75 cell flasks (Corning, 430641) and the medium was placed in a 37° C., 5% CO2 incubator. Cells were passaged when reaching a cell density of 70%-80%, approximately twice per week. • 2. To perform the experiment, the test compounds were dissolved in DMSO to prepare a 10 mM stock solution, and the test compounds were added to the 384-well cell test plate (Corning, 3765) at the predetermined concentration using ECHO. • 3. The cell culture flask was taken out, the medium was removed, and the cells were rinsed with PBS. Then 2 mL of trypsin (with 0.25% EDTA) was added, and the flask was placed in the incubator for digestion for 4 minutes. • 4. Digestion was stopped by adding 4 mL of complete medium and the cell suspension was transferred to a centrifuge tube and centrifuged at 1000 rpm for 4 minutes. • 5. The cells were resuspended in 6 mL of complete medium, followed by cell counting. The cell density was adjusted to 4,170 cells/mL, and the cells were added to a 384-well plate at 60 μL/well. • 6. The 384-well plate was centrifuged at 500 rpm for 1 minute, and then placed in a 37° C., 5% CO2 incubator for 6 days of cultivation. • 7. Six days later, the cell culture plate was equilibrated for 10 minutes at room temperature, 25 μL of Cell Titer-Glo was added to each well, and the mixture was shaken and mixed well and let stand for 5 minutes. The luminescence values for samples in various wells were read using a microplate reader in Luminescence mode.
The percentage of inhibition of cell proliferation by the test compound at each concentration was calculated by comparing with the values of the control group (0.3% DMSO). The IC50 values of the compounds were obtained by concentration-inhibition rate nonlinear regression analysis of the test compounds using GraphPad Prism 9.

PK study in ICR mice = type: in vivo, mouse; conditions: plasma, route and dose not given
Procedure: 6 ICR mice (male/female) were divided into two groups, administered orally and intravenously, respectively, with 3 mice/group. The mice were fasted for 10-14 hours prior to dosing with free access to water.
The test compound was weighed according to the administration dose, and prepared into a dose formulation at appropriate concentrations (for rats and mice, intravenous and oral administration at a volume of 5 mL/kg and 10 mL/kg, respectively), wherein the intravenous injection was a clear solution, and the oral preparation was a clear solution or a homogeneous suspension.
Animals were dosed by intravenous injection and oral gavage, and blood samples were collected at 0.033, 0.083, 0.25, 0.5, 1, 2, 4, 8, and 24 h after intravenous administration and 0.083, 0.25, 0.5, 1, 2, 4, 6, 8, and 24 h after oral administration. Whole blood was centrifuged at 6800 g for 6 min at 4° C. and the top plasma was stored in a −80° C. freezer for later analysis.
The DMSO stock solution of the test compound was diluted into a series of working solutions with a methanol or an acetonitrile solution, and added to a blank plasma matrix, and standard curves were generated and quality control samples were prepared. An appropriate volume of the plasma sample was taken and a suitable multiple of methanol or acetonitrile containing an internal standard was added for protein precipitation based on the response. After centrifugation of all samples at 18000 g for 10 min at 4° C., an appropriate amount of supernatant was taken for LC-MS/MS injection analysis.
Drug concentration-time curves in plasma were plotted according to test concentrations, and pharmacokinetic parameters were calculated using noncompartmental analysis by WinNonlin software, including: half-life (T½), area under the concentration-time curve from time zero to time t (AUCO-t), clearance (CL), volume of distribution at steady state (Vss) and bioavailability (F), with some of the test results shown in Table 4.

[1] = both sexes, mouse, read-out: AUC
[2] = both sexes, mouse, read-out: Cmax

Sequence of KIF18A (Q8NI77 whole entry): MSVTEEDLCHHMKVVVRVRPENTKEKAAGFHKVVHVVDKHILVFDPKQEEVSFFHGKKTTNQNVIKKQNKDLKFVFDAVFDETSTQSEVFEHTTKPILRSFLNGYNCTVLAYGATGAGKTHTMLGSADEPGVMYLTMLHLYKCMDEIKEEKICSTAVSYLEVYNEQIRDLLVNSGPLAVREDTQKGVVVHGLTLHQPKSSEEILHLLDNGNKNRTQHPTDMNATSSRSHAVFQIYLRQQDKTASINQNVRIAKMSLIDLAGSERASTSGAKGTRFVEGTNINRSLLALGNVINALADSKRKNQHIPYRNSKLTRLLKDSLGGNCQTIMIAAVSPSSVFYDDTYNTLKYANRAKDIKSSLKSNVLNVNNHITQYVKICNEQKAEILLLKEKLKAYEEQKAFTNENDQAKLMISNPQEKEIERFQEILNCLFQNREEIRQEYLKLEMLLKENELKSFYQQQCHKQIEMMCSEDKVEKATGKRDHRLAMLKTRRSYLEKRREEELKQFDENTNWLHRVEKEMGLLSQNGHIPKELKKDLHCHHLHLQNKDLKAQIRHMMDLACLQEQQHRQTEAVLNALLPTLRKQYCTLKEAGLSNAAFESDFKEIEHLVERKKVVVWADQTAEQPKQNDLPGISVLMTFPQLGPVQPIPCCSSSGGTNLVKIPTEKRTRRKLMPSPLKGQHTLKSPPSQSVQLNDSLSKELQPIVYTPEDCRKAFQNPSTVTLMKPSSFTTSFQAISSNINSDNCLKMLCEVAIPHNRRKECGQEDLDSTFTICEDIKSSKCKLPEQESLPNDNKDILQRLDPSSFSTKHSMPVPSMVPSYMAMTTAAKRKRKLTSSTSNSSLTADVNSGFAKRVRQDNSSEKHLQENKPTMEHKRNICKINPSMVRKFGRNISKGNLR
Sequence of KIF18A (P02550 whole entry partner): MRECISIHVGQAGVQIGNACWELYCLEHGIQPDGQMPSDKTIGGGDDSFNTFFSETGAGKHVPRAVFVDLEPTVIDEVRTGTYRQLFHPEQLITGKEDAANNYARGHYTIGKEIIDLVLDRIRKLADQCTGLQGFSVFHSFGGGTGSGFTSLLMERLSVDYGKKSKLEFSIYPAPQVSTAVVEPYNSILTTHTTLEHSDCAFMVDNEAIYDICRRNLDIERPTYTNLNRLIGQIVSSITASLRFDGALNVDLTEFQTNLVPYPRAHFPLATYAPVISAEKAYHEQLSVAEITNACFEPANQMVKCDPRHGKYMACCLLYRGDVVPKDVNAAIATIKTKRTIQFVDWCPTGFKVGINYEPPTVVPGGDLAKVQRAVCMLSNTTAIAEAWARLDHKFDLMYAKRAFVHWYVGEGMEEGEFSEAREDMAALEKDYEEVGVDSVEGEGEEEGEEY
Sequence of KIF18A (P02554 whole entry partner): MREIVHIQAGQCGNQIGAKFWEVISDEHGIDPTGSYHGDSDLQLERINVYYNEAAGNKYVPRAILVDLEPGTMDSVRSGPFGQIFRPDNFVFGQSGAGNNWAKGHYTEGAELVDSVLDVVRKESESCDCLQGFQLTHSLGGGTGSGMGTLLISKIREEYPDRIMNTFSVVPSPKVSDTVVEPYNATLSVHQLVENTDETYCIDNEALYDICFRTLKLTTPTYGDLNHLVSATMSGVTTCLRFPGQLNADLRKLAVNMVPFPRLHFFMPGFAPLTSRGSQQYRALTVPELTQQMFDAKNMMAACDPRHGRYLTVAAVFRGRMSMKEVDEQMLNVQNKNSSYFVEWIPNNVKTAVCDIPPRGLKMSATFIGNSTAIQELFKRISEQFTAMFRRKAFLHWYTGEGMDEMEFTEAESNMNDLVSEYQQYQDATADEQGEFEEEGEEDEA

O=C(Nc1cccc2c1cc1n2CCC(F)(F)C1O)c1ccc(NS(=O)(=O)CCO)cc1N1CCC2(CC1)CC2 (single isomer, unassigned) [Compound 384-P2, N-(8,8-difluoro-9-hydroxy-6,7,8,9-tetrahydropyridino[1,2-a]indol-1-yl)-4-((2-hydroxyethyl)sulfonamido)-2-(6-azaspiro[2.5]oct-6-yl)benzamide]
IC50 (KIF18A): 50 to 500 nM
IC50 (OVCAR-3 cells): ≤ 50 nM
IC50 (HT-29 cells): ≤ 200 nM

[2H]C([2H])([2H])OC1c2cc3c(NC(=O)c4ccc(NS(=O)(=O)CCO)cc4N4CCC5(CC4)CC5)cccc3n2CCC1(F)F (single isomer, unassigned) [Compound 385-P2, N-(8,8-difluoro-9-(methoxy-d3)-6,7,8,9-tetrahydropyridino[1,2-a]indol-1-yl)-4-((2-hydroxyethyl)sulfonamido)-2-(6-azaspiro[2.5]oct-6-yl)benzamide]
IC50 (OVCAR-3 cells): ≤ 50 nM
IC50 (HT-29 cells): ≤ 200 nM

[2H]C([2H])([2H])OC1c2cc3c(NC(=O)c4ccc(NS(=O)(=O)CCO)cc4N4CCC(=C(F)F)CC4)cccc3n2CCC1(F)F (single isomer, unassigned) [Compound 386-P2, N-(8,8-difluoro-9-(methoxy-d3)-6,7,8,9-tetrahydropyridino[1,2-a]indol-1-yl)-2-(4-(difluoromethylene)piperidin-1-yl)-4-((2-hydroxyethyl)sulfonamido)benzamide]
IC50 (KIF18A): ≤ 50 nM
IC50 (OVCAR-3 cells): 50 to 500 nM
IC50 (HT-29 cells): ≤ 200 nM

O=C(Nc1cccc2c1nc1n2CCOC1)c1ccc(NS(=O)(=O)CCO)cc1N1CCC(=C(F)F)CC1 [Example 322, 2-(4-(difluoromethylene)piperidin-1-yl)-N-(3,4-dihydro-1H-benzo[4,5]imidazo[2,1-c][1,4]oxazin-9-yl)-4-((2-hydroxyethyl)sulfonamido)benzamide]
IC50 (KIF18A): ≤ 50 nM
IC50 (OVCAR-3 cells; Homo sapiens, OVCAR-3, 240 h): ≤ 50 nM
AUC (PK study in ICR mice; [1]): 12400 ng·h/mL
Cmax (PK study in ICR mice; [2]): 2420 ng/mL

O=C(Nc1ccc(F)c2c1nc1n2CCOC1)c1ccc(NS(=O)(=O)CCO)cc1N1CCC(=C(F)F)CC1 [Example 323, 2-(4-(difluoromethylene)piperidin-1-yl)-N-(6-fluoro-3,4-dihydro-1H-benzo[4,5]imidazo[2,1-c][1,4]oxazin-9-yl)-4-((2-hydroxyethyl)sulfonamide)benzamide]
IC50 (KIF18A): ≤ 50 nM
IC50 (OVCAR-3 cells): ≤ 50 nM
AUC (PK study in ICR mice): 4113 ng·h/mL
Cmax (PK study in ICR mice): 762 ng/mL

CNc1cc(NS(=O)(=O)CCO)cc(N2CCC3(CC2)CC3)c1C(=O)Nc1ccc(OC)c(N2CCC(F)(F)CC2)n1 [Example 491, N-(6-(4,4-difluoropiperidin-1-yl)-5-methoxypyridin-2-yl)-4-((2-hydroxyethyl)sulfonamido)-2-(methylamino)-6-(6-azaspiro[2.5]oct-6-yl)benzamide]
IC50 (KIF18A): 50 to 500 nM
IC50 (OVCAR-3 cells; Homo sapiens, OVCAR-3, 240 h): ≤ 50 nM
AUC (PK study in ICR mice; [1]): 24800 ng·h/mL
Cmax (PK study in ICR mice; [2]): 2300 ng/mL

CC(C)Oc1ccc(NC(=O)c2ccc(NS(=O)(=O)CCO)cc2N2CCC3(CC2)CC3)c2cc3n(c12)CC(C)(C)OC3 [Example 531, 4-((2-hydroxyethyl)sulfonamido)-N-(6-isopropoxy-3,3-dimethyl-3,4-dihydro-1H-[1,4]oxazinyl[4,3-a]indol-9-yl)-2-(6-azaspiro[2.5]oct-6-yl)benzamide]
IC50 (KIF18A): 50 to 500 nM
IC50 (OVCAR-3 cells; Homo sapiens, OVCAR-3, 240 h): 50 to 500 nM

CC(C)Oc1ccc(NC(=O)c2ccc(NS(=O)(=O)CCO)cc2N2CCC(=C(F)F)CC2)c2cc3n(c12)CC(C)(C)OC3 [Example 532, 2-(4-(difluoromethylene)piperidin-1-yl)-4-((2-hydroxyethyl)sulfonamido)-N-(6-isopropoxy-3,3-dimethyl-3,4-dihydro-1H-[1,4]oxazinyl[4,3-a]indol-9-yl)benzamide]
IC50 (KIF18A): 50 to 500 nM
IC50 (OVCAR-3 cells): 50 to 500 nM

CCOc1ccc(NC(=O)c2ccc(NS(=O)(=O)CCO)cc2N2CCC3(CC2)CC3)c2cc3n(c12)CC(C)(C)OC3 [Example 535, N-(6-ethoxy-3,3-dimethyl-3,4-dihydro-1H-[1,4]oxazino[4,3-a]indol-9-yl)-4-((2-hydroxyethyl)sulfonamido)-2-(6-azaspiro[2.5]octan-6-yl)benzamide]
IC50 (KIF18A): 50 to 500 nM
IC50 (OVCAR-3 cells; Homo sapiens, OVCAR-3, 240 h): ≤ 50 nM
AUC (PK study in ICR mice; [1]): 101000 ng·h/mL
Cmax (PK study in ICR mice; [2]): 8370 ng/mL

CCOc1ccc(NC(=O)c2ccc(NS(=O)(=O)CCO)cc2N2CCC(=C(F)F)CC2)c2cc3n(c12)CC(C)(C)OC3 [Example 536, 2-(4-(difluoromethylene)piperidin-1-yl)-N-(6-ethoxy-3,3-dimethyl-3,4-dihydro-1H-[1,4]oxazino[4,3-a]indol-9-yl)-4-((2-hydroxyethyl)sulfonamido)benzamide]
IC50 (KIF18A): 50 to 500 nM
IC50 (OVCAR-3 cells; Homo sapiens, OVCAR-3, 240 h): 50 to 500 nM

COc1ccc(C(=O)Nc2ccc(NS(=O)(=O)CCO)cc2N2CCC3(CC2)CC3)c2cc3n(c12)CC(C)(C)OC3 [Example 565]
IC50 (KIF18A): 50 to 500 nM
IC50 (OVCAR-3 cells): ≤ 50 nM

COc1ccc(C(=O)Nc2ccc(NS(=O)(=O)CCO)cc2N2CCC(=C(F)F)CC2)c2cc3n(c12)CC(C)(C)OC3 [Example 566]
IC50 (KIF18A): ≤ 50 nM
IC50 (OVCAR-3 cells): 50 to 500 nM

CC1(C)Cn2c(cc3c(NC(=O)c4ccc(NS(=O)(=O)CCO)cc4N4CCC5(CC4)CC5)ccc(OC(F)(F)F)c32)CO1 [Example 573]
IC50 (KIF18A): ≤ 50 nM
IC50 (OVCAR-3 cells; Homo sapiens, OVCAR-3, 240 h): 50 to 500 nM

CC1(C)Cn2c(cc3c(NC(=O)c4ccc(NS(=O)(=O)CCO)cc4N4CCC(=C(F)F)CC4)ccc(OC(F)(F)F)c32)CO1 [Example 574]
IC50 (KIF18A): 50 to 500 nM
IC50 (OVCAR-3 cells; Homo sapiens, OVCAR-3, 240 h): 50 to 500 nM

[2H]C([2H])([2H])Oc1ccc(NC(=O)c2ccc(NS(=O)(=O)CCO)cc2N2CCC3(CC2)CC3)c2cc3n(c12)CC(C)(C)OC3 [Example 575]
IC50 (KIF18A): 50 to 500 nM
IC50 (OVCAR-3 cells; Homo sapiens, OVCAR-3, 240 h): ≤ 50 nM

[2H]C([2H])([2H])Oc1ccc(NC(=O)c2ccc(NS(=O)(=O)CCO)cc2N2CCC(=C(F)F)CC2)c2cc3n(c12)CC(C)(C)OC3 [Example 576]
IC50 (KIF18A): 50 to 500 nM
IC50 (OVCAR-3 cells; Homo sapiens, OVCAR-3, 240 h): ≤ 50 nM

O=C(Nc1ccc(OC(F)(F)F)c2c1cc1n2CCC(F)(F)C1)c1ccc(NS(=O)(=O)CCO)cc1N1CCC2(CC1)CC2 [Example 582]
IC50 (KIF18A): ≤ 50 nM
IC50 (OVCAR-3 cells; Homo sapiens, OVCAR-3, 240 h): 50 to 500 nM

O=C(Nc1ccc(OC(F)F)c2c1cc1n2CCC(F)(F)C1)c1ccc(NS(=O)(=O)CCO)cc1N1CCC2(CC1)CC2 [Example 583]
IC50 (KIF18A): 50 to 500 nM
IC50 (OVCAR-3 cells; Homo sapiens, OVCAR-3, 240 h): ≤ 50 nM
AUC (PK study in ICR mice; [1]): 43300 ng·h/mL
Cmax (PK study in ICR mice; [2]): 4410 ng/mL

O=C(Nc1ccc(OC(F)(F)F)c2c1cc1n2CCC(F)(F)C1)c1ccc(NS(=O)(=O)CCO)cc1N1CCC(=C(F)F)CC1 [Example 585]
IC50 (KIF18A): 50 to 500 nM
IC50 (OVCAR-3 cells; Homo sapiens, OVCAR-3, 240 h): 50 to 500 nM

O=C(Nc1ccc(OC(F)F)c2c1cc1n2CCC(F)(F)C1)c1ccc(NS(=O)(=O)CCO)cc1N1CCC(=C(F)F)CC1 [Example 586]
IC50 (KIF18A): 50 to 500 nM
IC50 (OVCAR-3 cells; Homo sapiens, OVCAR-3, 240 h): 50 to 500 nM

N-(1-(cyclopropylmethyl)-1H-indol-4-yl)-4-methoxy-2-(6-azaspiro[2.5]octan-6-yl)benzamide [Example 127]
IC50 (KIF18A): ≤ 50 nM
IC50 (OVCAR-3 cells): ≤ 50 nM
